In paper PMC3101243, “Probenecid Inhibits the Human Bitter Taste Receptor TAS2R16 and Suppresses Bitter Perception of Salicin” (PLoS ONE, 2011):
Blank lines part the entries; values can stand above or below the compound they belong to.

Experiments:
Format in all cases: cell-based
hTAS2R43 = molecular target: T1, hTAS2R43 (Homo sapiens, UniProt P59537); test: calcium flux in transfected HEK-293T cells (with Gα[…]gust44), […] aloin
T1 construct: gene TAS2R43; W35/H212 variant; first 45 amino acids of the rat somatostatin type 3 receptor fused for cell-surface targeting
T1 sequence (P59537 1-309): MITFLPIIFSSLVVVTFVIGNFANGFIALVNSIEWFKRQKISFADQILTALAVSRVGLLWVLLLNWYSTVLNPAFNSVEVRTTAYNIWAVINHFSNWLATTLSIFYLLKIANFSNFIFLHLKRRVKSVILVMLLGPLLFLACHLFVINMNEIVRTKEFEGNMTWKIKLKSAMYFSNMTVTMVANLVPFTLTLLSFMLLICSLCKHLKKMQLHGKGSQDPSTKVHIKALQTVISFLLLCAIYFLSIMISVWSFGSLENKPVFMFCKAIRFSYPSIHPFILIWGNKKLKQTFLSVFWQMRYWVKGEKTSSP

hTAS2R16 [1] = molecular target: T2, hTAS2R16 (Homo sapiens, UniProt Q9NYV7, R222H); test: calcium flux in transfected HEK-293T cells (with Gα[…]gust44), inhibition of […] salicin response; dose-response and mutant analysis
T2 construct: gene TAS2R16
T2 sequence (Q9NYV7 1-291 R222H): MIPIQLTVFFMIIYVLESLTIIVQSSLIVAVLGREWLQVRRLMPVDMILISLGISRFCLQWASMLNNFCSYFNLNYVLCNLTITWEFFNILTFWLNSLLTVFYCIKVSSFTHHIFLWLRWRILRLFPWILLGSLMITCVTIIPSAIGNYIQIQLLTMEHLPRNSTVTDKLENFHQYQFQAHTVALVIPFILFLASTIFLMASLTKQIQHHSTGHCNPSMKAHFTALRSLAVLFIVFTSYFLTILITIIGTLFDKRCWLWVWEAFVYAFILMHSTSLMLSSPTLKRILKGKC

hTAS2R38 = molecular target: T3, hTAS2R38 (Homo sapiens, UniProt P59533, A49P/I296V); test: calcium flux in transfected HEK-293T cells (with Gα[…]gust44), inhibition of […] PTC response
T3 construct: gene TAS2R38; PAV variant; first 45 amino acids of the rat somatostatin type 3 receptor fused for cell-surface targeting

hTAS2R16 [2] = molecular target: T2, hTAS2R16; test: calcium flux agonist dose-response in transfected HEK-293T cells (with Gα[…]gust44)

T3 sequence (P59533 whole entry A49P/I296V, the tested form may be a part): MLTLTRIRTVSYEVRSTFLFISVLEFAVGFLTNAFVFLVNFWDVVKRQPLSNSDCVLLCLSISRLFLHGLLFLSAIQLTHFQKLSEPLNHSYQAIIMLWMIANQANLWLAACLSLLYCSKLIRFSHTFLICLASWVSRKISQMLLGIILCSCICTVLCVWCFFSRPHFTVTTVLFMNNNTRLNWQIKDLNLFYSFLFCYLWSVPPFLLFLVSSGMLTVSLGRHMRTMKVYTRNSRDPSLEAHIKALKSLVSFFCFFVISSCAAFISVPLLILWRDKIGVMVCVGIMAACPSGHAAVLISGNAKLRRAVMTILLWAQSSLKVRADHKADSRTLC

SMILES: O=C1c2c(O)cccc2C([C@@H]2O[C@H](CO)[C@@H](O)[C@H](O)[C@H]2O)c2cc(CO)cc(O)c21 (stereo partly shown) [aloin]
- calcium flux in transfected HEK-293T cells (with Gα16gust44), 3 mM aloin (hTAS2R43): Aloin induced an increase in intracellular calcium in HEK-293T cells expressing hTAS2R43

- IC50 (hTAS2R16 [1]): 292 µM
- IC50 (hTAS2R38): 211 µM
SMILES: CCCN(CCC)S(=O)(=O)c1ccc(C(=O)O)cc1 [probenecid, p-(dipropylsulfamoyl)benzoic acid]

- EC50 (hTAS2R16 [2]): ~1.2 mM
SMILES: OCc1ccccc1O[C@@H]1O[C@H](CO)[C@@H](O)[C@H](O)[C@H]1O [salicin]
